Legend:
[1] = Population PK model (nonlinear mixed-effects, two-compartment) of oral Compound A patient concentration vs. time data; format: in vivo, human
Experimental: A population PK model based on orally administered Compound A dosing data in a total of 10 patients with metastatic uveal melanoma (UM) and advanced hematologic malignancies (e.g., acute myeloid leukemia (AML)) was performed.
Nonlinear mixed-effects models were fitted to concentration vs. time data of FHD-286. Various compartmental models with linear elimination (1-, 2- and 3-compartment), absorption models, structures of omega on clearances, volumes and absorption parameters (diagonal and block) were developed to assess the PK of Compound A.
Overall, a two-compartment model with linear elimination, a zero-order oral absorption, and a lag time of absorption adequately characterized the concentration-time profiles of Compound A.
Exploratory analysis of covariate effects was performed with appropriate plots presenting relationships between the ETAs (e.g., values reflecting the difference between and individual's parameter value and that of the population) of PK parameters to identify any remaining covariate trends. […] Therefore a “Multiple Dose Effect” on CL was included in the model to account for this change over time.
No other covariates were included as part of the model.

[2] = Phase 1 dose escalation clinical trial of Compound A, oral, in subjects with metastatic uveal melanoma; format: in vivo
Experimental: A Phase 1 dose escalation clinical trial of Compound A is conducted. The trial is primarily intended to determine the maximum tolerated dose (MTD) and/or recommended phase 2 dose of the compound when administered orally to subjects with metastatic uveal melanoma (UM).
In this ongoing study, Compound A has been administered at dose levels of 2.5 mg once a day (QD), 5 mg QD, 7.5 mg QD, and 10 mg QD to 17 subjects with metastatic UM. […] In evaluable subjects, myeloid differentiation and reduction in bone marrow and/or peripheral blasts have been observed.

[3] = final population PK model, oral, 10 patients

Question: With `COC[C@H](NC(=O)c1ccn(S(C)(=O)=O)c1)C(=O)Nc1nc(-c2cccc(N3C[C@@H](C)O[C@@H](C)C3)n2)cs1` [Compound A, N-(1-((4-(6-(2,6-dimethylmorpholino)pyridin-2-yl)thiazol-2-yl)amino)-3-methoxy-1-oxopropan-2-yl)-1-(methylsulfonyl)-1H-pyrrole-3-carboxamide] as the molecule, how does the “change in clearance (CL) over time” value ([1]; after multiple doses) read?
Answer: The value was “reduction”.

Question: What about the “CL, Estimate” value [1, 3] of the same molecule?
Answer: The value was 4.07 L/h.

Question: And the “CLp, Estimate” value [1, 3]?
Answer: The value was 30.6 L/h.

Question: What about the “Tlag, Estimate (lag time of absorption)” value [1, 3] of the same molecule?
Answer: Its value is 0.452 h.

Question: What about the “Vc, Estimate” value [1, 3] of the same molecule?
Answer: The value was 54.6 L.

Question: And the “Vd, Estimate” value [1, 3]?
Answer: Its value is 165 L.

Question: What about the “Dur, Estimate (zero-order oral absorption)” value ([1]; final population PK model, oral, 10 patients with metastatic UM and advanced hematologic malignancies) of the same molecule?
Answer: Its value is 1.77 h.

Question: And the myeloid differentiation ([2]; in evaluable subjects)?
Answer: Its myeloid differentiation is “observed”.

Question: And the “reduction in bone marrow and/or peripheral blasts” value ([2]; in evaluable subjects)?
Answer: Its value is “observed”.

Question: What about the dose limiting toxicity ([2]; one subject at the 7.5 mg QD dose level, improved with a dose hold) of the same molecule?
Answer: The dose limiting toxicity was “Grade 3 keratitis”.

Question: And the “half-life (preliminary PK analysis)” value ([2]; oral 2.5, 5, 7.5, 10 mg QD, 17 subjects with metastatic UM, preliminary)?
Answer: The value was “long”.

Question: What about the “plasma concentrations of the compound versus dose” value ([2]; oral 2.5-10 mg QD, subjects with metastatic UM, preliminary) of the same molecule?
Answer: The value was “increase with increasing dose”.

Source: patent US20250339441A1, “METHODS OF TREATING CANCER” (FOGHORN THERAPEUTICS INC., priority 2022, published 2025)
